From US20240358672A1, “APPLICATION OF GENISTEIN AND ITS PHOSPHATE ESTER DERIVATIVE AND PHARMACEUTICAL COMPOSITION COMPRISING THE SAME” (National Taiwan University, priority 2023, published 2024)
Where two headings read alike, the source gives them in different places.

Experiments:
mouse thoracic arteries = experiment: Wire myograph of isolated mouse thoracic aortas; type: in vivo, C57BL/6J mice
Description: (§1) FIG. 7A: Isometric tension recordings of isolated mice thoracic aortas were performed using a wire myograph. Vascular concentration-dependent relaxation was induced by acetylcholine (ACh) in pre-constricted mouse thoracic arteries. […] FIG. 7C: Luminex analysis of inflammatory cytokines in plasma of C57BL/6J mice treated with vehicle control, Δ^9-THC, or Δ^9-THC plus genistein. […] FIG. 7E: Effect of Δ^9-THC and genistein on NF-κB phosphorylation in mouse thoracic artery. Total cell lysates were prepared, and the expressions of phosphor-NF-κB were analyzed by ELISA (upper left). Superoxide dismutase (SOD) activity of serum from mouse (bottom left). The effect of Δ^9-THC and genistein on NF-κB phosphorylation in mouse thoracic artery tissues (n=5). Total cell lysates were prepared, and the expressions of NF-κB, phosphorylated NF-κB, and β-actin were analyzed by western blot analysis (right panel). FIG. 7F: The levels reduced glutathione (GSH), Oxidized glutathione (GSSG), Total glutathione (T-GSH) and GSH/GSSG in the serum samples of mice were detected. Plasma isolated from C57BL/6J mice (n=5) treated with vehicle control, Δ^9-THC, genistein, or their combination every day for 30 days was analyzed by the glutathione colorimetric assay kit (BioVision, K261).

C57BL/6J mice [1] = type: in vivo
Description: as §1
Genistein also rescued the oxidative stress protective-related gene expression (FIG. 7D). In addition, NF-κB phosphorylation and SOD expression in mouse serum were also attenuated with genistein (FIG. 7E). Δ^9-THC administration decreased circulating levels of the antioxidant glutathione, which was ameliorated with genistein cotreatment (FIG. 7F).

[2] = system: engineered heart tissues (EHTs) composed of hiPSC-ECs and hiPSC-CMs; experiment: Engineered heart tissues (EHTs) contractility
Description: FIG. 8A to 8C illustrate the effects of genistein and Δ^9-THC on cardiac contraction in vivo or in vitro experiments according to Example 9. […] After treatment exposure, the contractility, relaxation and peak force of EHT were measured using the Sony imaging platform. FIG. 8B: Same as the former, analysis of heart rate and contraction-relaxation (CR) interval (48 hours). […] Mice were anesthetized with 1%-2% isoflurane, and images were acquired in the parasternal long-axis (PLA) and parasternal short axis (PSA) on a Visualsonic Vevo 2100 platform. The ventricular (LV) dimensions were traced offline, and the ejection fraction (EF) was calculated using Simpson's biplane method of discs.
The inventor used engineered heart tissues (EHTs) composed of hiPSC-ECs and hiPSC-derived cardiomyocytes (hiPSC-CMs) to interrogate the effects of genistein and Δ^9-THC on contractility in vitro.

[3] = system: LDL receptor knockout mice (B6.129S7-Ldlr^tm1Her/J); experiment: Chronic atherosclerosis in Ldlr−/− mice on high-fat diet; type: in vivo, mouse; conditions: HFD 12 weeks
Text: FIG. 9A to 9E illustrate the effect of Δ^9-THC and genistein on the formation of chronic atherosclerosis according to Example 10. FIG. 9A: The body weights of Ldlr^−/− mice after exposure to (1) vehicle control (n=10), (2) Δ^9-THC (n=12), or (3) Δ^9-THC plus genistein (n=12). FIG. 9B: Lipid profiles of serum samples (left panel) and blood pressure (right panel) of Ldlr^−/− mice after exposure to (1) vehicle control (n=10 (left), n=3 (right)), (2) Δ^9-THC (n=12 (left), n=4 (right)), and (3) Δ^9-THC plus genistein (n=12 (left), n=4 (right)). The blood pressure was measured by tail-cuff. FIG. 9C: Oil red O staining of atherosclerotic plaques in cross-sections at the aortic root level (upper panel). Quantitation of atherosclerotic plaques: (1) vehicle control (n=10), (2) Δ^9-THC (n=10), and (3) Δ^9-THC plus genistein (n=11) (bottom panel). FIG. 9D: Gross images of oil red O stained Ldlr^−/− thoracic aorta are shown (left panel). Quantification of plaque size by en face analysis of thoracic aorta after exposure to (1) vehicle control (n=10), (2) Δ^9-THC (n=12), or (3) Δ^9-THC plus genistein (n=12). FIG. 9E: Immunostaining of CD68 in cross-sections at the aortic root level (upper panel). Quantitation of CD68-positive area from (1) vehicle control (n=10), (2) Δ^9-THC (n=9), and (3) Δ^9-THC plus genistein (n=10) (bottom panel).
In this part, In order to investigate the effect of Δ^9-THC and genistein in chronic atherosclerosis formation, LDL receptor knockout mice (B6.129S7-Ldlr^tm1Her/J) were fed a high-fat diet (HFD) for 12 weeks and treated with (1) vehicle control (n=10 to 12/group), (2) Δ^9-THC (n=10 to 12/group, administered Δ^9-THC 1 mg/kg), or (3) Δ^9-THC and genistein (n=10 to 12/group, administered Δ^9-THC 1 mg/kg plus genistein 50 mg/kg). […] After 12 weeks of HFD, the mice were euthanized, and the atherosclerotic lesion area was examined by cross-sections of the aortic root and an en face analysis of the thoracic aorta. […] Macrophage recruitment in the aortic root was analyzed using aortic plaque stained with an anti-CD68 antibody.

C57BL/6J mice [4] = experiment: Neurobehavioral tetrad (Billy Martin tetrad) in mice
Description: FIG. 13 illustrate the effect of genistein on the neurobehavioral effects of Δ^9-THC according to Example 12. C57BL/6J mice were exposed to (1) vehicle control (intraperitoneal [i.p.], and oral [p.o.], n=8), (2) Δ^9-THC at 20 mg/kg i.p. and p.o. vehicle (n=9), (3) genistein at 50 mg/kg p.o. and i.p. vehicle (n=8), and (4) combination of Δ^9-THC at 20 mg/kg i.p. and genistein at 50 mg/kg p.o. (n=9). […] Hypothermia was assessed by measuring body temperature using a rectal probe before and 60 min after treatment. The catalepsy test measures the time a mouse remained immobile on the bar. Analgesia was measured by placing mice on a hot plate and recording the time for the mouse to withdraw or lick.
These are described as the Billy Martin tetrad.
Therefore, the neurological effects of Δ^9-THC and genistein co-administration were tested in C57BL/6J mice treated with vehicle, genistein, Δ^9-THC, or in combination. The tetrad effects were assessed using an activity chamber for mobility, a hot plate for analgesia, a rectal probe for hypothermia, and the bar test for […].

[5] = Δ^9-THC 1 mg/kg plus genistein 50 mg/kg

Compound: O=c1c(-c2ccc(O)cc2)coc2cc(O)cc(O)c12 [genistein]
- Δ^9-THC-induced endothelial dysfunction (mouse thoracic arteries; [5]): mitigated the effect
- Δ^9-THC-induced mRNA expressions of inflammation-related genes in mouse thoracic artery tissues (C57BL/6J mice [1]; Δ^9-THC 1 mg/kg plus genistein 50 mg/kg or rimonabant 3 mg/kg): ameliorated
- NF-κB phosphorylation in mouse thoracic artery (C57BL/6J mice [1]; Δ^9-THC plus genistein): attenuated
- SOD expression in mouse serum (C57BL/6J mice [1]; Δ^9-THC plus genistein): attenuated
- oxidative stress protective-related gene expression in thoracic artery tissues (C57BL/6J mice [1]; Δ^9-THC plus genistein): rescued
- plasma IL-6, IL-3 and IL-10 (Luminex) (C57BL/6J mice [1]; Δ^9-THC plus genistein cotreatment): significantly reduced
- Δ^9-THC-decreased circulating glutathione (C57BL/6J mice [1]; Δ^9-THC plus genistein cotreatment, every day for 30 days): ameliorated
- contraction, relaxation, and peak force of EHTs [2]: no significant effect
- Δ^9-THC effects on beat rate and contraction-relaxation interval [2]: did not attenuate these effects
- CD68-positive area in the aortic root [3, 5]: rescued
- plaque formation, en face analysis of the thoracic aorta (oil red O) [3, 5]: improvement of plaque formation
- plaque size, cross-sections of the aortic root [3, 5]: ameliorated plaque size
- serum lipid profiles or blood pressure [3, 5]: Neither Δ^9-THC nor cotreatment with Δ^9-THC and genistein affected
- tetrad effects (C57BL/6J mice [4]; genistein 50 mg/kg p.o. alone): did not affect tetrad effects
- Δ^9-THC neurobehavioral effects (C57BL/6J mice [4]; Δ^9-THC 20 mg/kg i.p. and genistein 50 mg/kg p.o.): could not attenuate

Compound: CCCCCc1cc(O)c2c(c1)OC(C)(C)[C@@H]1CCC(C)=C[C@@H]21 [Δ^9-THC, Δ^9-tetrahydrocannabinol]
- endothelial function (ACh-induced relaxation) (mouse thoracic arteries; Δ^9-THC 1 mg/kg): induced endothelial dysfunction
- plasma IL-6, IL-3 and IL-10 (Luminex) (C57BL/6J mice [1]; Δ^9-THC alone): elevated
- circulating levels of the antioxidant glutathione (C57BL/6J mice [1]; Δ^9-THC alone, every day for 30 days): decreased
- beat rate of EHTs ([2]; 5 μM Δ^9-THC, 48 hours): decreased beat rate
- contraction-relaxation interval of EHTs ([2]; 5 μM Δ^9-THC, 48 hours): increased the contraction-relaxation interval
- CD68-positive area in the aortic root ([3]; Δ^9-THC 1 mg/kg): significantly increased
- plaque size, cross-sections of the aortic root ([3]; Δ^9-THC 1 mg/kg): significantly increased plaque size
- serum lipid profiles or blood pressure ([3]; Δ^9-THC 1 mg/kg): Neither Δ^9-THC nor cotreatment with Δ^9-THC and genistein affected
- analgesia (hot plate) (C57BL/6J mice [4]; Δ^9-THC 20 mg/kg i.p.): analgesia
- hypothermia (rectal probe) (C57BL/6J mice [4]; Δ^9-THC 20 mg/kg i.p.): hypothermia
- mobility (activity chamber) (C57BL/6J mice [4]; Δ^9-THC 20 mg/kg i.p.): decreased mobility
- sedation (bar test) (C57BL/6J mice [4]; Δ^9-THC 20 mg/kg i.p.): sedation
